From patent publication US7285555B2, “6-aryl-7-halo-imidazo[1,2-a]pyrimidines as anticancer agents” (Wyeth Holdings Corporation, priority 2003, dated 2007)

How the values were obtained:
HL-60/ADR cells = assay: MTS cytotoxicity test procedure with HL-60/ADR cells; type: cell-based, human; conditions: for Ratio: IC50 on HL-60/ADR cells/IC50 on HL-60 cells
Text: (§1) Human cancer cell lines, unless otherwise noted, are obtained from the American Type Culture Collection (Rockville, Md.). The following drug-sensitive parental cell lines, and their derived drug-resistant counterparts, are obtained from the originators as listed: (a) S1 (parental line from a subclone of human colon carcinoma line LS174T) and derived S1-M1-3.2 (herein called S1-M1) which expresses the MXR drug transporter protein, are provided by Dr. L. Greenberger, Wyeth Research (Rabindran, S. K., He, H., Singh, M., Brown, E., Collins, K. I., Annable, T., and Greenberger, L. M. Reversal of a novel multidrug resistance mechanism in human colon carcinoma cells by fumitremorgin C. Cancer Res., 58: 5850-5858,1998); (b) parental HL-60 human promyelocytic leukemia line and derived HL-60/ADR, which expresses the MRP1 drug transporter protein, are provided by Dr. M. Center, University of Kansas (McGrath, T., and Center, M. S. Adriamycin resistance in HL60 cells in the absence of detectable P-glycoprotein. Biochem. Biophys. […] J. Biol. Chem., 261: 7762-7770, 1986) via Dr. L. Greenberger, Wyeth Research.
The MTS assay, which is sold in kit form by Promega (Madison, Wis.; CellTiter 96 AQueous Non-Radioactive Cell Proliferation Assay), is based on the conversion by viable cells, but not by dead cells, of the tetrazolium salt, MTS (3-(4,5-dimethylthiazol-2-yl)-5-(3-carboxymethoxyphenyl)-2-(4-sulphophenyl)-2H-tetrazolium, inner salt), into a water-soluble colored formazan which is detected by spectrophotometry. Compounds are tested at nine concentrations, in order to determine IC50 values. For the test procedure, cells are harvested by trypsinization (or, in the case of non-adherent cells, by simple resuspension), washed, counted and distributed to wells of 96-well flat-bottom microtiter plates at 1000 cells per well in 200 μL of medium. In addition, one row of wells on a separate plate receives cells as above (“time 0” plate). All plates are incubated at 370 in humidified 5% CO2 in air for about 24 hr.
On day 2, compounds for test are diluted and added to wells. Compounds are dissolved in DMSO at 10 mg/mL. For each compound, nine serial 2-fold dilutions are prepared in DMSO. Ten μL of each dilution in DMSO is transferred to 100 μL of medium, mixed well, and then 5 μL of this dilution is transferred in quadruplicate to wells containing cells. […] Plates are returned to the incubator for three days. At the time of drug addition to the experimental plates, the MTS assay is run on the “time 0” plate.
After three days of culture with test compounds (day 5 overall), the MTS assay is done on all wells of the experimental plates. The absorbance values of the quadruplicate sample wells are averaged and divided by the average of the “time 0” values. […] The nine values for each compound are plotted against concentration, and the concentration that produces a relative color yield half way between the maximum and minimum is taken as the IC50 value.
HL-60/ADR cells overexpress the multidrug resistance protein MRP1 which mediates resistance to some chemotherapeutics (Gottesman, M. M., Fojo, T., and Bates, S. E. Multidrug resistance in cancer: role of ATP-dependent transporters. Nature Rev. Cancer, 2: 48-58, 2002). The IC50 values of example 6 of this invention, as well as reference compounds, on HL-60/ADR are compared to values on the sensitive parental HL-60 line.

KB-V1 cells = assay: SRB cytotoxicity test procedure with KB-V1 cells; type: cell-based, human; conditions: SRB assay; for Ratio VI/KB: IC50 on KB VI cells/IC50 on KB cells
Text: as §1
The SRB standard cytotoxicity assay is done according to previously reported methods (Discafani, C. M., Carroll, M. L., Floyd Jr., M. B. F., Hollander, I. J., Husain, Z., Johnson, B. D., Kitchen, D., May, M. K., Malo, M. S., Minnick Jr., A. A., Nilakantan, R., Shen, R., Wang Y-F., Wissner, A., Greenberger, L. M. Irreversible inhibition of epidermal growth factor receptor tyrosine kinase with in vivo activity by N-[4-[3-bromophenyl)amino]-6-quinaxolinyl]-2-butynamide (CL-387,785). Biochem. Pharmacol., 57: 917-925, 1999). Briefly, cells are plated in 100 μL of medium in 96-well flat-bottom microtiter plates in the morning of day 1 and allowed to adhere to the plates for 2-6 hr. Compounds are serially diluted into medium as 2× stocks and 100 μL of these stocks are added to cells in duplicate. Compounds are incubated with cells for 3 days. At the end of the incubation period the sulforhodamine B (SRB) assay, which measures protein content as an assessment of cell survival, is performed as described previously (Skehan, P., Storeng, R., Scudiero, D., Monks, A., McMahon, J., Vistica, D., Warren, J. T., Bokesch, H., Kenney, S., Boyd, M. R. New calorimetric cytotoxicity assay for anticancer-drug screening. J. Natl. Cancer Inst., 82:1107-1112, 1990) with some modifications. Medium is gently decanted from plates and replaced with 200 μL per well of cold serum-free medium containing a final concentration of 10% trichloroacetic acid. The plates are incubated for 1 hr at 40, washed 5 times in cold distilled water, and air-dried overnight. The fixed cells are stained for 10 min with 80 μL per well of 0.04% SRB solution prepared in 1% glacial acetic acid. Staining solution is decanted, plates are washed 5 times in 1% glacial acetic acid, and then air-dried until completely dry. Stained cell product is dissolved in 150 μL per well of 10 mM Trizma Base with shaking for 20 minutes. Absorbance is read on a Victor V multi-label plate reader (Perkin Elmer, Gaithersburg, Md.).
The KB lines express different amounts of the P-glycoprotein (MDR1) membrane pump which produces resistance to the action of many cytotoxic compounds, including paclitaxel and vincristine. The parental KB line expresses no P-glycoprotein, KB-8-5 expresses moderate levels of the protein, and KB-V1 expresses very high levels.

Row | SMILES | IC50 (HL-60/ADR cells; Homo sapiens, HL60/ADR, MTS assay, HL-60/ADR cells, means of 2 independent experiments) [nM] | Ratio (HL-60/ADR cells) | Ratio (HL-60/ADR cells; listed as example 6) | IC50 (KB-V1 cells; Homo sapiens, KB-V1, KB VI cells, means of 2 independent experiments) [nM] | Ratio VI/KB (KB-V1 cells) | Ratio VI/KB (KB-V1 cells; listed as paclitaxel)
1 | CN(C)CCCOc1cc(F)c(-c2c(Cl)nc3nccn3c2C2CCCCCC2)c(F)c1 [Example 6, 3-[4-(7-Chloro-5-cycloheptylimidazo[1,2-a]pyrimidin-6-yl)-3,5-difluorophenoxy]-N,N-dimethylpropan-1-amine] | 29 | 0.55 | no resistance |  |  | 
2 | CC(=O)O[C@H]1C(=O)[C@@]2(C)[C@H]([C@H](OC(=O)c3ccccc3)[C@]3(O)C[C@H](OC(=O)[C@H](O)[C@@H](NC(=O)c4ccccc4)c4ccccc4)C(C)=C1C3(C)C)[C@]1(OC(C)=O)CO[C@@H]1C[C@@H]2O [Paclitaxel, reference compound] |  |  |  | > 3000 | >1360 | > 1,360
